Assay results reported in US20230064990A1, “DOSING REGIMENS AND METHODS FOR TREATING CANCER” (Panbela Therapeutics, Inc., priority 2020, published 2023).

Experiments:
[1] = test system: human L3.6pl pancreatic cancer cells; assay: Orthotopic implantation of L3.6pl pancreatic cancer cells into nude mice; settings: Study 3, GEM 100 mg/kg 2×/wk ip, (S,S)-(HO)2DEHSPM 25 mg/kg 3×/wk
Method: These studies examined the anti-neoplastic effects of subcutaneous administration of (S,S)-(HO)2DEHSPM following orthotopic implantation of human L3.6pl pancreatic cancer cells into the pancreas of nude mice.
L3.6pl cells were injected into the pancreas of nude mice; treatment was initiated by group (n=10/group planned) 7-10 days later following establishment of tumors:
Study 1: saline (control), (S,S)-(HO)2DEHSPM (25 mg/kg), (S,S)-(HO)2DEHSPM (50 mg/kg), and (S,S)-(HO)2DEHSPM (100 mg/kg) daily (QD) for 4 to 6 weeks (wks).
Study 2: saline (control), (S,S)-(HO)2DEHSPM (25 mg/kg QD), (S,S)-(HO)2DEHSPM (25 mg/kg 3×/wk), (S,S)-(HO)2DEHSPM (15 mg/kg 3×/wk), and (S,S)-(HO)2DEHSPM (5 mg/kg 3×/wk) for 4 to 6 wks.
Study 3: saline (control), gemcitabine (GEM) (100 mg/kg 2×/wk, intraperitoneally), (S,S)-(HO)2DEHSPM (25 mg/kg 3×/wk), and (S,S)-(HO)2DEHSPM+GEM for 4 to 6 wks.

[2] = Phase 1a/1b study in combination with G and A, safety; type: in vivo, human; settings: N=20
Method: G (1000 mg/m^2) and A (125 mg/m^2) were administered intravenously on Days 1, 8, and 15 of each cycle. […] PK was evaluated on day 1 of cycle 1. Efficacy was assessed by CA19-9 levels, objective response was assessed by RECIST criteria, progression-free survival (PFS) and overall survival (OS).
This is a multicenter, open label, Phase 1a/1b study to evaluate to evaluate the safety, tolerability, pharmacokinetics and efficacy of (S,S)-(HO)2DEHSPM when administered in combination with G and A as first-line therapy in pancreatic cancer patients previously untreated for metastatic disease. The objective was to determine a recommended Phase 2 dose. Using a modified 3+3 dose escalation scheme, cohorts of subjects were dosed with subcutaneous injections of (S,S)-(HO)2DEHSPM at 0.2, 0.4 or 0.6 mg/kg days 1-5 of each 28-day cycle. Gemcitabine (1000 mg/m^2) and A (125 mg/m^2) were administered intravenously on Days 1, 8, and 15 of each cycle. […] PK was evaluated on day 1 of cycle 1. Efficacy was assessed by objective response rate (ORR) using RECIST criteria and by changes in CA19-9 levels. Subjects were treated until disease progression or the development of dose-limiting toxicity. Based upon initial safety findings and preliminary signals of efficacy, the protocol was amended to evaluate progression-free survival (PFS) and overall survival (OS) and expand the study to up to 36 subjects at the recommended Phase 2 dose. To date, 20 subjects were enrolled in cohorts 1-3 and evaluated for dose limiting toxicity and early signals of efficacy.

[3] = test system: PDA; settings: pivotal trials; cited from earlier work

| Compound | decreases in body weight ([1]; 4 to 6 wks) | decreases in pancreas weight ([1]; compared with controls) | decreases in tumor volume ([1]; compared with controls) | Grade ≥3 Elevated LFTs related to the named study medication (subjects) [2] | DCR, historical rate [3] | ORR, historical rate [3] |
| --- | --- | --- | --- | --- | --- | --- |
| Nc1ccn([C@@H]2O[C@H](CO)[C@@H](O)C2(F)F)c(=O)n1 [GEM, gemcitabine, reference compound] | 18.7% | 24.7% | 37.8% | 1 (G) |  |  |
| FOLFIRINOX |  |  |  |  | 70% | 32% |
